Assay results as given in patent US20230145764A1, “BLOOD-BASED TUMOR MUTATION BURDEN PREDICTS OVERALL SURVIVAL IN NSCLC” (MEDIMMUNE, LLC, priority 2018, published 2023).

How the values were obtained:
[1] = molecular target: T1, human CTLA-4 (Homo sapiens, UniProt P16410); conditions: specific for human CTLA-4; cited from earlier work
T1 sequence (P16410 36-223): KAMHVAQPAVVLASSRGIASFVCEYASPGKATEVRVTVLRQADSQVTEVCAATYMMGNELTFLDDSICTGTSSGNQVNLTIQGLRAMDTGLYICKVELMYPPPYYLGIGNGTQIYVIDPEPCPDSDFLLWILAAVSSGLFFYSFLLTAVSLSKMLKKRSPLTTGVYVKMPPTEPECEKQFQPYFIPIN

[2] = tested on: Fc receptors; conditions: cited from earlier work
[3] = tested on: natural killer (NK) ADCC activity; conditions: cited from earlier work
[4] = tested on: metastatic NSCLC; assay: MYSTIC phase 3 study, efficacy (OS, PFS, tumor response) in ITT population and PD-L1 expression subgroups; assay type: in vivo, human; conditions: for ORR, %: BICR per RECIST v1.1
Description: Adult patients with Stage IV NSCLC were eligible provided they had not previously received systemic therapy for advanced/metastatic NSCLC, had Eastern Cooperative Oncology Group performance status 0-1, measurable disease according to Response Evaluation Criteria in Solid Tumors version 1.1 (RECIST v1.1) (Chaft et al., Cancer Res. 78(13 Suppl) (abstr. CT113) (2018)), and known tumor PD-L1 expression status prior to randomization. Patients with sensitizing EGFR mutations or ALK rearrangements, and those with symptomatic, unstable brain metastases were excluded.
(§1) Patients continued treatment until objective disease progression (according to RECIST v1.1), development of an adverse event (AE) that necessitated treatment discontinuation, or withdrawal of consent.
Investigation of the relationship between biomarkers, including TMB, and clinical outcomes were also determined.
PD-L1 expression was evaluated using multiple cut-offs at a central laboratory using the VENTANA PD-L1 (SP263) immunohistochemistry (IHC) assay (Ventana Medical Systems, Tucson, Ariz., USA) (Rebelatto et al., Diagn. Pathol. 11(1): 95 (2016)). Tumor samples obtained within 3 months prior to screening were permitted.
(§2) Tumor response was assessed by BICR using RECIST v1.1, with imaging performed every 6 weeks for the first 48 weeks, then every 8 weeks, until confirmed disease progression. Patients were followed for survival. AEs were graded according to National Cancer Institute Common Terminology Criteria for Adverse Events version 4.03.
(§3) Efficacy was analyzed on an intention-to-treat (ITT) basis, including all randomized patients or subsets of this population based on PD-L1 expression or TMB levels. Safety analyses included all patients who received at least one dose of study treatment (as-treated population).
To control the type I error at 5% (two-sided), a hierarchical multiple testing procedure with gatekeeping strategy was used across endpoints, analysis populations, and treatment regimens. The primary PFS analysis was performed using a stratified log-rank test adjusting for histology, with hazard ratio (HR) and 99.5% confidence interval (CI) estimated using a Cox proportional hazards model. […] Survival curves were generated using the Kaplan-Meier method.
(§4) Odds ratios and 95% CI for comparing ORR between treatment groups were calculated using a logistic regression model, adjusted for the same factors as PFS and OS. Prespecified TMB analysis was performed using an unstratified log-rank test, with HRs and 95% Cis estimated using a Cox proportional hazards model.

[5] = tested on: metastatic NSCLC; assay: MYSTIC phase 3 study, efficacy by blood TMB (GuardantOMNI) or tissue TMB (FoundationOne) subgroup; assay type: in vivo, human
Description: as §1
Blood TMB was evaluated using the GuardantOMNI next-generation sequencing platform (Guardant Health, Redwood City, Calif., USA) comprised of 500 genes (FIG. 1).
The OMNI TMB algorithm incorporates somatic single nucleotide variants (SNVs), short insertions/deletions (indels), copy number amplifications and fusions, and is optimized to calculate TMB on blood samples with low cell-free circulating tumor DNA content (Merck Sharp & Dohme. Keytruda® (pembrolizumab) Summary of Product Characteristics. Updated March 2019. Available at: https://www.medicines.org.uk/emc/product/6947/smpc (last accessed May 1, 2019); Reck et al., N. Engl. J. Med. 375(19): 1823-33 (2016)). Both synonymous and nonsynonymous SNVs and indels were included, with removal of those with low shedding values, low diversity, and associations with clonal hematopoiesis, germline and oncogenic driver or drug resistance mechanisms. Tissue TMB was evaluated using the FoundationOne tissue next-generation sequencing platform (Foundation Medicine, Cambridge, Mass., USA). The algorithm has been described previously (Merck Sharp & Dohme. Keytruda® (pembrolizumab) prescribing information. Updated April 2019. Available at: https://www.merck.com/product/usa/pi_circulars/k/keytruda/keytruda_pi.pdf (last accessed May 1, 2019)).
as §3, §4

[6] = MYSTIC phase 3 study, safety (adverse events, as-treated population); conditions: in vivo
Description: as §1, §2, §3

[7] = tested on: mNSCLC; assay: MYSTIC ctDNA mutation analysis (STK11, KEAP1, ARID1A), overall survival by mutation status; assay type: in vivo, human
Description: This example investigated associations between selected mutations and survival outcomes. Circulating tumour DNA from baseline plasma specimens was profiled using the GuardantOMNI platform. Samples were available from 1003 patients (89.7% of ITT population). 943 samples were mutation-evaluable. Survival outcomes were analysed in patients with or without non-synonymous somatic mutations in STK11, KEAP1, or ARID1A, or KRAS.

[8] = molecular target: PD-L1 (Homo sapiens, UniProt Q9NZQ7); conditions: in vitro; cited from earlier work
Chain of PD-L1 (Q9NZQ7 19-290): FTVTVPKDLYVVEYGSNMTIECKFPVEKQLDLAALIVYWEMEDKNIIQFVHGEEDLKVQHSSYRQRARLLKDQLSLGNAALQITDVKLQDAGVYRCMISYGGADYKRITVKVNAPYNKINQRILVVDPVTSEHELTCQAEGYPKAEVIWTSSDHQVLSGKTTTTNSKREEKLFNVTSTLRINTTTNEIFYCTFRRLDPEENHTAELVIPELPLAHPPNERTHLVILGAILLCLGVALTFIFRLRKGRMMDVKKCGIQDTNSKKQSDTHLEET

[9] = tested on: xenograft model; conditions: via a T-cell dependent mechanism; cited from earlier work

## tremelimumab
[1]
  cross-reactivity to related human proteins: no cross-reactivity
[2]
  specific binding to Fc receptors: minimal specific binding
[3]
  induction of natural killer (NK) ADCC activity: does not induce

## durvalumab
[4]; ITT population
  Hazard ratio (95% CI) for death compared with chemotherapy: 0.96
  Median overall survival, months (95% CI): 12.3 months
[4]; PD-L1 TC <1%
  Hazard ratio (95% CI) for death compared with chemotherapy: 1.18
  Median overall survival, months (95% CI): 10.1 months
[4]; PD-L1 TC ≥1%
  Hazard ratio (95% CI) for death compared with chemotherapy: 0.88
  Median overall survival, months (95% CI): 14.6 months
[4]; PD-L1 TC ≥25%
  24-month OS rate: 38.3%
  Best objective response, Complete response, %: (0.6) %
  Best objective response, Not evaluable, %: (1.2) %
  Best objective response, Partial response, %: (35.0) %
  Best objective response, Progressive disease, %: (32.5) %
  Best objective response, Stable disease ≥ 6 weeks, %: (30.7) %
  HR for death vs. chemotherapy: 0.76
  Remaining in response (%) at 6 months: 66.9%
  Remaining in response (%) at 12 months: 61.3%
  difference in PFS versus chemotherapy group: no statistically significant difference
  ORR, %: 35.6%
[4]; PD-L1 TC ≥25% (primary analysis population)
  median OS: 16.3 months
[4]; PD-L1 TC ≥25%, listed as Durvalumab Monotherapy
  ORR, %: (35.6) %
[4]; PD-L1 TC ≥25%, Kaplan-Meier, NR = not reached
  Median DOR, months (95% CI): NR (9.7-NR)
[4]; PD-L1 TC ≥25-49%
  Hazard ratio (95% CI) for death compared with chemotherapy: 0.78
  Median overall survival, months (95% CI): 11.1 months
[4]; PD-L1 TC ≥50%
  Hazard ratio (95% CI) for death compared with chemotherapy: 0.76
  Median overall survival, months (95% CI): 18.3 months
[4]; in vivo
  Estimated odds ratio vs. chemotherapy (95% CI): 0.91
[4]; overall survival, ITT population
  Number of events/patients: 278/374
[4]; overall survival, PD-L1 TC <1%
  Number of patients: 84/95
[4]; overall survival, PD-L1 TC ≥1%
  Number of patients: 194/279
[4]; overall survival, PD-L1 TC ≥25-49%
  Number of patients: 33/45
[4]; overall survival, PD-L1 TC ≥50%
  Number of patients: 75/118
[5]; Blood TMB <20 mut/Mb
  ORR, %: (20.6) %
  Remaining in response (%) at 6 months: 64.0%
  Remaining in response (%) at 12 months: 59.1%
[5]; Blood TMB ≥20 mut/Mb
  ORR, %: (29.9) %
  Remaining in response (%) at 6 months: 86.5%
  Remaining in response (%) at 12 months: 80.3%
[5]; Tissue TMB ≥10 mut/Mb
  HR for death versus chemotherapy: 0.70
  median OS: 18.6 months
[5]; bTMB ≥20 mut/Mb
  median OS: 12.6 months
  unadjusted HR for death vs. chemotherapy: 0.72
[6]
  All-grade treatment-related AEs (TRAEs), % of patients: 54.2%
  Immune-mediated AEs of grade 3 or 4, % of patients: 4.1%
  Immune-mediated AEs, % of patients: 13.6%
  Rates of grade ≥3 TRAEs: 14.9%
  TRAEs leading to discontinuation: 5.4%
  Treatment-related deaths, %: 0.5%
  Treatment-related deaths, patients: 2 patients
[7]; patients with ARID1Am
  median OS (mOS): 8.6 months
[7]; patients with ARID1Awt
  median OS (mOS): 13.7 months
[7]; patients with KEAP1m
  median OS (mOS): 7.6 months
[7]; patients with KEAP1wt
  median OS (mOS): 14.6 months
[7]; patients with STK11m
  median OS (mOS): 10.3 months
[7]; patients with STK11wt
  median OS (mOS): 13.3 months
[8]
  PD-L1-mediated suppression of human T-cell activation: relieve PD-L1-mediated suppression
[9]
  tumor growth in a xenograft model: inhibits tumor growth
